Measurements from ChEMBL document CHEMBL2439951, “Discovery of N-(benzo[1,2,3]triazol-1-yl)-N-(benzyl)acetamido)phenyl) carboxamides as severe acute respiratory syndrome coronavirus (SARS-CoV) 3CLpro inhibitors: identification of ML300 and noncovalent nanomolar inhibitors with an induced-fit binding” (Bioorg Med Chem Lett, 2013).

Legend:
[1] = biological target: Cytochrome P450 2D6 (Homo sapiens, UniProt P10635); assay: Inhibition of CYP2D6 (unknown origin); format: ADME
[2] = biological target: Cytochrome P450 2C9 (Homo sapiens, UniProt P11712); assay: Inhibition of CYP2C9 (unknown origin); format: ADME
[3] = biological target: T1, Cytochrome P450 1A2 (Homo sapiens, UniProt P05177); assay: Inhibition of CYP1A2 (unknown origin); format: ADME
T1 sequence (P05177 whole entry): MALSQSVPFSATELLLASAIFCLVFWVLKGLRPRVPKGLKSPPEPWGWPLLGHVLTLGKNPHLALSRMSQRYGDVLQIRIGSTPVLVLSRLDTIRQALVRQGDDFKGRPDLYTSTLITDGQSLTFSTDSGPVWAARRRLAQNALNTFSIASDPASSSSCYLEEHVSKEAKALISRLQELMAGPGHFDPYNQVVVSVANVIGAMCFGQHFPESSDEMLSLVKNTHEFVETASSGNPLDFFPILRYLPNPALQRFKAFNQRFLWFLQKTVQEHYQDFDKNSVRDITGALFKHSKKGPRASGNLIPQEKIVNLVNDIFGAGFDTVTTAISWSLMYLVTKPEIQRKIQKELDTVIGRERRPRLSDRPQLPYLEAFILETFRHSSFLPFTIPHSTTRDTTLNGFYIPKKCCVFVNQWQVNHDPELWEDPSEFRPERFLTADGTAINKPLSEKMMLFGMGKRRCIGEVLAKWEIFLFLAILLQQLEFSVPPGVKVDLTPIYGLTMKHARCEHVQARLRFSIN

[4] = biological target: Replicase polyprotein 1a (Severe acute respiratory syndrome-related coronavirus, UniProt P0C6U8); assay: Inhibition of SARS coronavirus 3CLpro
[5] = Inhibition of SARS coronavirus PLpro; design: species or system Severe acute respiratory syndrome-related coronavirus
[6] = biological target: Replicase polyprotein 1a (Severe acute respiratory syndrome-related coronavirus) (UniProt P0C6U8); assay: Inhibition of SARS coronavirus 3CLpro at 100 uM

Chain of Cytochrome P450 2C9 (P11712 whole entry): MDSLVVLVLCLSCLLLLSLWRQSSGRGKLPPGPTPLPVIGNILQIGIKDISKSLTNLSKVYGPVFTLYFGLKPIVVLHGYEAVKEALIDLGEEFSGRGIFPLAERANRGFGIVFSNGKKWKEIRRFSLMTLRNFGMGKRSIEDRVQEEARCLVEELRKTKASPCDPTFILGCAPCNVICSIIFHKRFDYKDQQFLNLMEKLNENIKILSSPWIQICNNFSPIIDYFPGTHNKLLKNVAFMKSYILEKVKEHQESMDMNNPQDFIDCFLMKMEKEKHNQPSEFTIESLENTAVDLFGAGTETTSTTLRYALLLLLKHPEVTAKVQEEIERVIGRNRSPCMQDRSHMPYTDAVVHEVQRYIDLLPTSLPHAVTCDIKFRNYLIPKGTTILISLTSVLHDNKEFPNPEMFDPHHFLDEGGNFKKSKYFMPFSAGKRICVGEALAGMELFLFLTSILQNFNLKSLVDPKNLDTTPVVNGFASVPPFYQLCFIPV
Chain of Cytochrome P450 2D6 (P10635 whole entry): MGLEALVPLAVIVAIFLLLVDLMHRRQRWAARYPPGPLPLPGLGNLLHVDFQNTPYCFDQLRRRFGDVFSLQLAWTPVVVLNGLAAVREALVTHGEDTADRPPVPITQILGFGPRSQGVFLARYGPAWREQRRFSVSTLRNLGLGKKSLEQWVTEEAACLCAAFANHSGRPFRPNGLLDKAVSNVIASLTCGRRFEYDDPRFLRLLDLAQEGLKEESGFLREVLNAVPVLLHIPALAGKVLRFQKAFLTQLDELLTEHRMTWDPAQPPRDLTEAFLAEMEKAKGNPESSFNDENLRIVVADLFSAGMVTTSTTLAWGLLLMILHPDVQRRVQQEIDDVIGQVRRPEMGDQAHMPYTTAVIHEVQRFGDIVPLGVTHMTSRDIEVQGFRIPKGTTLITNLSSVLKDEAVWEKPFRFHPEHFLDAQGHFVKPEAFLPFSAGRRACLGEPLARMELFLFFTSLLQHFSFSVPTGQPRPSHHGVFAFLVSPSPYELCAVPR

O=C(Nc1ccc(N(Cc2ccsc2)C(=O)Cn2nnc3ccccc32)cc1)C1CC1
INH [1]: 8.4 µM | INH [2]: 7.2 µM | INH [3]: 7.7 µM

CCC(C)(C)NC(=O)[C@@H](c1ccn(C)c1)N(C(=O)Cn1nnc2ccccc21)c1ccc(NC(C)=O)cc1
IC50 ([4]; read-out: IC50): 6200 nM | IC50 [5]: > 60000 nM

CC(C)(C)NC(=O)[C@@H](c1cccnc1)N(C(=O)c1ccco1)c1ccc(C(C)(C)C)cc1
INH [1]: > 30 µM | INH [2]: 9.1 µM | INH [3]: > 30 µM

COc1ncccc1-c1ccc(N(Cc2ccsc2)C(=O)Cn2nnc3ccccc32)cc1
IC50 ([4]; read-out: IC50): 700 nM

O=C(Cn1nnc2ccccc21)N(Cc1ccsc1)c1ccc(-c2ccncc2)cc1
IC50 ([4]; read-out: IC50): 2000 nM

CC(C)COC(=O)Nc1ccc(N(C(=O)Cn2nnc3ccccc32)C(C(=O)NC(C)(C)C)c2ccsc2)cc1 (configuration not stated)
IC50 [4]: Not Active

O=C(Nc1ccc(N(Cc2ccsc2)C(=O)Cn2nnc3ccccc32)cc1)c1ccccc1
inhibition [6]: 18%
